Data from ChEMBL document CHEMBL1201862, “PubChem BioAssay data set” (2004).
Activity calls are given as the source filed them.

Experiments:
[1] = tested on: Streptococcus; assay: GAS UMAA2166 growth inhibition – luminescence, BacTiterGlo, counter-screen for streptokinase expression inhibitor project, dose response (AID 1915); format: functional, organism-based;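 note: potency for reduction of bacterial viability or growth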
[2] = tested on: HEK293; assay: Fluorescence-based counterscreen for potentiators or agonists of NPY-Y1: cell-based high-throughput dose response assay for inhibitors of cyclic nucleotide gated ion channel (CNGC) activity. In this assay, the parental HEK293 cell line transfected with a cyclic-nucleotide gated ion channel (CNGC)-based cAMP sensor is used to measure inhibition of isoproterenol-induced CNGC …; format: functional; details: Homo sapiens
[3] = tested on: Streptococcus sp. 'group A'; assay: Streptococcus pyogenes SK(-)GAS viability under kanamycin – luminescence, BacTiterGlo, confirmation, counter-screen for streptokinase expression inhibitor project, dose response (AID 1900); format: functional, organism-based
[4] = cells; format: functional, cell-based
[5] = luciferase reporter signal suppression in cells – H4 neuroglioma cells, luminescence, dose response (AID 1990); format: functional, cell-based
[6] = molecular target: T1, Luciferin 4-monooxygenase (Photinus pyralis, UniProt P08659); assay: Counter Screen for Luciferase-based Assay Positives. [Related pubchem assays: 620, 618, 411 ]
[7] = tested on: HT-1080; assay: HT1080 cell viability loss – fluorescence readout (AID 620); format: functional, cell-based; details: Homo sapiens
[8] = alpha-synuclein stem-loop luciferase translation blockers – H4 neuroglioma cells, luminescence, confirmation (AID 1988); format: functional, cell-based
[9] = molecular target: T2, Heat shock factor protein 1 (Mus musculus, UniProt P38532); assay: decrease of HSF1-responsive luciferase luminescence – cell-based, NIH3T3, dose retest, confirmation (AID 2382); format: functional;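 note: NIH3T3 fibroblasts with HSF1-driven luciferase reporter stressed by proteasome inhibitor MG132; luminescence from HSF1-driven luciferase expression after 8 hours of MG132 stress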
T2 sequence (P38532 whole entry): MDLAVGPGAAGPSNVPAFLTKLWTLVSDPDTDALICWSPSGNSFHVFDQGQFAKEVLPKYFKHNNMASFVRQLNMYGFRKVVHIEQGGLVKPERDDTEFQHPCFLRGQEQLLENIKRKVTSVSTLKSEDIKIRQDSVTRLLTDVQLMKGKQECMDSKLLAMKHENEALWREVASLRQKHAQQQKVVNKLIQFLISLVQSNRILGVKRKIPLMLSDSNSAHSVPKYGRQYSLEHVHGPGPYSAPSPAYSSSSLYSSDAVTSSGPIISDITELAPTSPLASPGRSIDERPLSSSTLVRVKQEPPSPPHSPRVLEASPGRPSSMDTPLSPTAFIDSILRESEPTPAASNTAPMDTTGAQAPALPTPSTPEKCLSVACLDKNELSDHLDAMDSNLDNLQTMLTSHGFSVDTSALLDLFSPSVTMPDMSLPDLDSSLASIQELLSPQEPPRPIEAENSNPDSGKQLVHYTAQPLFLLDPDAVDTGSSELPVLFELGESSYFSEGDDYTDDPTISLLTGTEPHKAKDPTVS

[10] = molecular target: T3, Microphthalmia-associated transcription factor (Homo sapiens, UniProt O75030); assay: reducers of TRPM1 reporter luminescence, concentration series – cell-based, SK-MEL-5, cherry-picked, set 3, MITF inhibitor project, dose response (AID 493073); format: functional;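 note: SK-MEL-5 melanoma cells with luciferase driven by the MITF target TRPM1 promoter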
T3 sequence (O75030 whole entry): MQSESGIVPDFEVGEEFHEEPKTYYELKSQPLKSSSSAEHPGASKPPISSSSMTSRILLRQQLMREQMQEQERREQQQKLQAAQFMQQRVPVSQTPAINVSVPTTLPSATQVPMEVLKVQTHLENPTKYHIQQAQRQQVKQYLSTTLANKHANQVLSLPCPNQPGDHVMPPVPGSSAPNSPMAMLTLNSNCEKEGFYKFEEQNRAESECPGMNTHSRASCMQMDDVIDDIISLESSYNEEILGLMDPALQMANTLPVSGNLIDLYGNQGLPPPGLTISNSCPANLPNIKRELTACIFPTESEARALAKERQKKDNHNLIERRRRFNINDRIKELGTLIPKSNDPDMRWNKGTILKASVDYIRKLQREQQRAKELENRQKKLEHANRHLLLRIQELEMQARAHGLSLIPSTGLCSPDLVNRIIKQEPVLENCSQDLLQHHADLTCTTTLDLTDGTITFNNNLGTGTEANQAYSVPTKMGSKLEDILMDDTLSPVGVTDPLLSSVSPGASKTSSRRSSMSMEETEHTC

[11] = Luminescence Cell-Based Dose Confirmation HTS to Identify Inhibitors of Platelet Dense Granule Release. [Related pubchem assays: 1663 (Primary HTS), 1678 (Summary of Project)]; format: functional
[12] = molecular target: T1, Luciferin 4-monooxygenase; assay: inhibition of purified Photinus pyralis luciferase – biochemical, luminescence, dose response (AID 1891)
[13] = alpha-synuclein stem-loop translation blockers – luminescence, H4 neuroglioblastoma cells, dose confirmation, confirmation (AID 2454); format: functional, cell-based;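 note: H4 neuroglioblastoma cells carrying an alpha-synuclein 5'UTR luciferase reporter; potency for inhibition of the luciferase signal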
[14] = Luminescence Cell-Based Dose Response HTS to Identify Inhibitors of 5'UTR Stem-Loop Driven Prion Protein mRNA Translation in H4 Neuroglioblastoma Cells. [Related pubchem assays: 1827 (Project Summary), 1813 (Primary HTS)]; format: functional
[15] = tested on: A-375; assay: proliferation inhibition in MITF-low A375 cells – cell-based, cherry-pick samples, set 2, counter-screen for MITF modulator project, dose response (AID 540335); format: functional; details: Homo sapiens
[16] = molecular target: T4, Tyrosine-protein phosphatase non-receptor type 7 (Homo sapiens, UniProt P35236); format: functional
T4 sequence (P35236 whole entry): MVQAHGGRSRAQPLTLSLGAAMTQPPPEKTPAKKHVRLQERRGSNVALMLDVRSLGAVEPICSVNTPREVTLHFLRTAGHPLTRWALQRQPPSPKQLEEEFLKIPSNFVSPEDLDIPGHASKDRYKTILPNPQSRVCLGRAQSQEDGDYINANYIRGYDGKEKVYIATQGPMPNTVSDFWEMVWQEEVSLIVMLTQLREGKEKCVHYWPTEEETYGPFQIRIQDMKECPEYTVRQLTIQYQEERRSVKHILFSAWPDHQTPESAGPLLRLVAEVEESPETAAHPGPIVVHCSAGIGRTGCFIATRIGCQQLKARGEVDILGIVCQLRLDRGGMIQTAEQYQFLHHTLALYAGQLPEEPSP

[17] = molecular target: T5, Dual specificity protein phosphatase 6 (Rattus norvegicus, UniProt Q64346)
T5 sequence (Q64346 whole entry): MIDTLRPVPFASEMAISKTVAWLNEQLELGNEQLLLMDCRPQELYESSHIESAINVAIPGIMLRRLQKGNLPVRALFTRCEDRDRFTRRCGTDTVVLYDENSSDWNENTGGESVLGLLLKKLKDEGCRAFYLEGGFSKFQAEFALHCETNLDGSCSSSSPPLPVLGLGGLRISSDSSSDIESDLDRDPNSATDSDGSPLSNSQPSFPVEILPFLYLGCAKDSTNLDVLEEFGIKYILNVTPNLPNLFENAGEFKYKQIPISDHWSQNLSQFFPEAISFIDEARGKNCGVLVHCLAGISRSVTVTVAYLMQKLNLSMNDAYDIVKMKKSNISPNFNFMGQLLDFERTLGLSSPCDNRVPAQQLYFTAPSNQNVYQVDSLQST

[18] = molecular target: Glyceraldehyde-3-phosphate dehydrogenase (Homo sapiens, UniProt P04406)
[19] = molecular target: T5, Dual specificity protein phosphatase 6; format: functional
[20] = viability of HCT116 lacking mutant beta-catenin – cell-based, human colon tumor, dose response (AID 1045); format: functional;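 note: HCT116 colon tumor cells with beta catenin knocked out; cells exposed to compound for 60 hours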
[21] = viability of PTEN-deleted HCT116 cells – cell-based, HCT116 PTEN knockout, dose response (AID 1047); format: functional;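 note: HCT116 colon tumor cells with PTEN knocked out; cells exposed to compound for 60 hours before readout; potency for loss of cell viability measured by luminescence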
[22] = molecular target: T6, Alkaline phosphatase, tissue-nonspecific isozyme (Homo sapiens, UniProt P05186)
T6 sequence (P05186 whole entry): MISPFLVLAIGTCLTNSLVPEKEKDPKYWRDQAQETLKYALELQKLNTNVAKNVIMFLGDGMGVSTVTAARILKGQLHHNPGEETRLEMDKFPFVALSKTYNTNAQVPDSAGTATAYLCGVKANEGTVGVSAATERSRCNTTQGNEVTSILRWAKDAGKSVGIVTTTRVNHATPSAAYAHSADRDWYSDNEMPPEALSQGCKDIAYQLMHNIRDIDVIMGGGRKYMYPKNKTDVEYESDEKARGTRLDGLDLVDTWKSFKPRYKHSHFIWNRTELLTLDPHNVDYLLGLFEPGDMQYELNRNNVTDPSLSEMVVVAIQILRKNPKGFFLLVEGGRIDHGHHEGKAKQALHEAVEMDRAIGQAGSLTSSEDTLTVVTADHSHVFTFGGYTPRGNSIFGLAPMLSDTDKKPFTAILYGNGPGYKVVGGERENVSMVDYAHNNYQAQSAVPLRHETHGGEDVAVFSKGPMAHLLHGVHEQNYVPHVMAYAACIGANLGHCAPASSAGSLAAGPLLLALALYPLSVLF

[23] = molecular target: DNA dC->dU-editing enzyme APOBEC-3G (Homo sapiens, UniProt Q9HC16); format: functional;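 note: Dose-response counterscreen measuring inhibition of APOBEC3G DNA deaminase activity, run while confirming APOBEC3A inhibitors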
[24] = molecular target: Melanin-concentrating hormone receptor 1 (Homo sapiens, UniProt Q99705); assay: Fluorescence-based counterscreen for antagonists of the G-protein coupled receptor 7 (GPR7): cell-based high throughput dose response assay to identify antagonists of the melanin-concentrating hormone receptor 1 (MCHR1).; format: functional
[25] = molecular target: Neuropeptides B/W receptor type 1 (Homo sapiens, UniProt P48145); assay: Fluorescence-based dose response cell-based high throughput screening assay to identify antagonists of the G-protein coupled receptor 7 (GPR7). [Related pubchem assays: 1952 (Screening assay (GPR7 antagonists).), 1880 (Summary AID.)]; format: functional
[26] = molecular target: DNA dC->dU-editing enzyme APOBEC-3A (Homo sapiens, UniProt P31941); assay: Dose Response confirmation of small molecule APOBEC3A DNA Deaminase Inhibitors via a fluorescence-based single-stranded DNA deaminase assay. [Related pubchem assays (depositor defined):AID493011, AID493024]; format: functional
Sequence of DNA dC->dU-editing enzyme APOBEC-3A (P31941 whole entry): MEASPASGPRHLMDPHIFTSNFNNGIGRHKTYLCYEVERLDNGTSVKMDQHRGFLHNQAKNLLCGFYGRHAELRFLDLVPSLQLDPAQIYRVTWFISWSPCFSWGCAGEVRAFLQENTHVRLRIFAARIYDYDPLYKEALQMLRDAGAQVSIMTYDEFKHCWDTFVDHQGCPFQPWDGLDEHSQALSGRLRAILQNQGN

T1 sequence (P08659 whole entry): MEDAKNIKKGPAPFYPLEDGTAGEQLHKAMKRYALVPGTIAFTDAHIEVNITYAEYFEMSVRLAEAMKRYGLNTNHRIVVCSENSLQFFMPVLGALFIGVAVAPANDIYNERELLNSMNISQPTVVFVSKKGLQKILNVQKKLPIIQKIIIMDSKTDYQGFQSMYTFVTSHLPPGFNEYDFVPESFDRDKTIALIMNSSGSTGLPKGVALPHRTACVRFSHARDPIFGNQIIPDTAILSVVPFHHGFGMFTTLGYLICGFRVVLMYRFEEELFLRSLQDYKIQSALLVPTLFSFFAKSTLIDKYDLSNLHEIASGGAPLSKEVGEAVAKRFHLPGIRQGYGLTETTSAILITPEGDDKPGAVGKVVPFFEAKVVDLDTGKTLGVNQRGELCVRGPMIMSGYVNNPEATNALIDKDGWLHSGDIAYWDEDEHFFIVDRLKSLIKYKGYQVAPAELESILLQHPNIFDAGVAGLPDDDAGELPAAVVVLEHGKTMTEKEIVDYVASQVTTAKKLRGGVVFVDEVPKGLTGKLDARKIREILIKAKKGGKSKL
Sequence of DNA dC->dU-editing enzyme APOBEC-3G (Q9HC16 whole entry): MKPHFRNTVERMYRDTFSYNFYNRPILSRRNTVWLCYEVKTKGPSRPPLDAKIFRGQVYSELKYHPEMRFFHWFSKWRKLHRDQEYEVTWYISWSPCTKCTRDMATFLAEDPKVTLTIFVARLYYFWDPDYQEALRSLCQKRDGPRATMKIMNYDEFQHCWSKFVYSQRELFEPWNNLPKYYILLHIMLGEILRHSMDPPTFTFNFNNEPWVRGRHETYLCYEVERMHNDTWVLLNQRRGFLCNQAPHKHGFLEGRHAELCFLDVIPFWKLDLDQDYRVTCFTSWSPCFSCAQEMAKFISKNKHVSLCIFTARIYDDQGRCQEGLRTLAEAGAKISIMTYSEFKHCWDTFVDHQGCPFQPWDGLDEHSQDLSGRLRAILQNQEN
Sequence of Melanin-concentrating hormone receptor 1 (Q99705 whole entry): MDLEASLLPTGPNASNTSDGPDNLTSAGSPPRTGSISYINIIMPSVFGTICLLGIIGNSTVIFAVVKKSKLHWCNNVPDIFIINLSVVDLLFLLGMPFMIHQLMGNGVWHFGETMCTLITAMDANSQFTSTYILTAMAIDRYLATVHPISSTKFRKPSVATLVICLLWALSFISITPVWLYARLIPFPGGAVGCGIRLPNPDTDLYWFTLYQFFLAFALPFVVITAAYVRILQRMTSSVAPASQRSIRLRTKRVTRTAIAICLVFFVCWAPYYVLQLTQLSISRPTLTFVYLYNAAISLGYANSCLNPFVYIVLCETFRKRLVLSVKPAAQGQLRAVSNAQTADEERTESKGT
Sequence of Glyceraldehyde-3-phosphate dehydrogenase (P04406 whole entry): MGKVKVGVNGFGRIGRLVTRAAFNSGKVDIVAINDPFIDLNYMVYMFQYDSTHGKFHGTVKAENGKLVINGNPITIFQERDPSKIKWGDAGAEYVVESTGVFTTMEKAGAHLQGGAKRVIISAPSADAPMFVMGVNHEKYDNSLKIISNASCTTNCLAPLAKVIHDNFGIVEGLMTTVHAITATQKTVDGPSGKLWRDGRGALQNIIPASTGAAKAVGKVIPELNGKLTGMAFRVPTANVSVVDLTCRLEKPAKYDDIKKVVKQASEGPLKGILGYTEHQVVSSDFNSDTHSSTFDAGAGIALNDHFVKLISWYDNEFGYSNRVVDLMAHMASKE
Sequence of Neuropeptides B/W receptor type 1 (P48145 whole entry): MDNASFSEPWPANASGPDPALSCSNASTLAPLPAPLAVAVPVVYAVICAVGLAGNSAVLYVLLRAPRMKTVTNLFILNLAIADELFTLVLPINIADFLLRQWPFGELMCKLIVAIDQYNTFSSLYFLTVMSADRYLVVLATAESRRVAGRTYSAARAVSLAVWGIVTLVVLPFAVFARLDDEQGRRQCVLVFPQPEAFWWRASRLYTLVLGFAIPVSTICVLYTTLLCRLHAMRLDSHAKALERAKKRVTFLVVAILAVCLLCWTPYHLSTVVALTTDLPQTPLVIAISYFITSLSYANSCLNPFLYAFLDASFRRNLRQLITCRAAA

## CCOc1ccc(NC(S)=NN=C(S)Nc2cccc(C(F)(F)F)c2)cc1
[1]
  EC50: > 150 µM (not active)
[2]
  IC50: > 35.4 µM (not active)
[3]
  EC50: 24.4 µM (active)

## O=C(/C=C\Nc1ccc2c(c1)OCO2)c1ccccn1
[4]
  EC50: > 12 µM (inconclusive)
[5]
  EC50: 0.649 µM (active)
[6]
  EC50: 23.4 µM (active)
[7]
  EC50: > 50 µM (not active)
[8]
  EC50: 0.234 µM (active)
[9]
  EC50: 4.62 µM (active)
[10]
  AC50: 2.08 µM (active)
[11]
  EC50: 3.3 µM (active)
[12]
  EC50: 0.634 µM (active)
[13]
  EC50: 0.874 µM (active)
[14]
  EC50: < 0.1 µM (active)
[15]
  AC50: 41 µM (active)

## CCn1c(=O)n(CC)c(=O)n([C@@H](Cc2ccccc2)C(=O)O)c1=O
[16]
  IC50: > 100 µM (not active)
[17]
  IC50: > 100 µM (inactive)
[18]
  IC50: > 100 µM (not active)
[19]
  IC50: > 100 µM (inactive)

## Cn1c(N/N=C2\CCCc3ccccc32)nc2c1c(=O)n(Cc1ccc(F)cc1)c(=O)n2C
[20]
  EC50: 10.2 µM (active)
[21]
  EC50: 9.86 µM (active)
[22]
  EC50: 18.8 µM (active)

## FC(F)(F)c1cccc(C[n+]2c3n(c4ccc(C(F)(F)F)cc42)CCCCC3)c1
[23]
  IC50: 3.21 µM (active)
[24]
  IC50: 13 µM (not active)
[25]
  IC50: 19.7 µM (not active)
[26]
  IC50: 2.17 µM (active)
